# Results taken from paper PMC10535864, “Novel Aminopyrimidine-2,4-diones, 2-Thiopyrimidine-4-ones, and 6-Arylpteridines as Dual-Target Inhibitors of BRD4/PLK1: Design, Synthesis, Cytotoxicity, and Computational Studies” (Pharmaceuticals, 2023).
# Values joined by “and” are separate entries in the source; they are usually repeats but may differ in a detail not shown here. Equal entries are not always repeated.
# Tests used:
# Type in all cases: cell-based
# MDA-MB-231 cells [1] = assay: Cell cycle analysis, propidium iodide flow cytometry; settings: treated at IC50 concentration, 48 h
# Text: (§1) The results are indicated as a dot plot graph with four quadrant images (Figure 5B). […] However, both compounds also raised the necrotic percent by 1.8- and 2.8-fold, respectively, compared to non-treated cells. Overall, these findings implied that compound 7 could exert anticancer activity by producing cell cycle arrest at the G2/M phase and inducing apoptosis.
# (§2) An Epics XL-MCL™ Flow Cytometer and Flowing software 2012 were used to count and analyze stained cells. The Supplementary file contains detailed descriptions of the flow cytometric analysis of cell-cycle distribution and cellular apoptosis. […]
# (§3) 1.3.Cell cycle and apoptosis screening […]
# (§4) investigated using an Ab-139418 propidium iodide flow cytometry kit and an Annexin-V assay and biparametric cytofluorimetric analysis, respectively, as instructed by the manufacturer. IC50s of both 7 and […]
# Cytometer and Flowing software were used to count and analyze stained cells. The Supplementary file contains detailed descriptions of the flow cytometric analysis of cell-cycle distribution and cellular apoptosis.
# 1.3.1. Cell cycle analysis […]
# a six-well plate containing MDA-MB-231 breast cancer cells was seeded with 1 X 10^5 cells per well and then […]
# Following that, cells were gathered and fixed in ice-cold 70% ethanol at 4 °C for 12 hours. The cells were then rinsed with cold Phosphate Buffer Saline (PBS) and incubated for 30 minutes at 37°C in 0.5 mL of PBS after the ethanol was removed. Propidium iodide was used to stain the cells for 30 min while they were in the dark. DNA content was determined using a flow cytometer. […]
# MDA-MB-231 cells [2] = assay: Apoptosis screening, annexin V-FITC/PI flow cytometry; settings: compared to non-treated control MDA-MB-231 cells
# Text: as §1, §2, §3, §4
# Cytometer and Flowing software were used to count and analyze stained cells. The Supplementary file contains detailed descriptions of the flow cytometric analysis of cell-cycle distribution and cellular apoptosis. […]
# 1.3.2. Apoptosis screening […]
# plate received 1 X 105 conc. breast cancer (MDA-MB-231) cells that were then incubated for 24 hours. The cells […]
# with PBS, and stained for 15 min at room temperature in the dark with annexin V-FITC and PI in binding buffer (10 […]
# µM HEPES, 140 µM NaCl, and 2.5 µM CaCl2 at pH 7.4). […]
# high-quality RNA iseluted in RNase-free water.
# 1.4.2. Master mix preparation
# All the following reagents were mixed together to give a totalvolume (50 μL). 2X SYBR® Green RT-PCR reaction mixture (25 μL), forward primer (10 μM) (1.5 μL), reverse primer (10 μM) (1.5 μL), nuclease-free H2O (11 μL), RNA template (1 pg to 100 ng totalRNA) (10 μL) and iScript reverse transcriptase for One-Step RT-PCR (1 μL).
# 1.4.3. Amplification protocol
# Incubate complete reaction mixture in a real-time thermal detection system (Rotorgene) as follows: cDNA synthesis:
# 10 min at 50 °C, iScript reverse transcriptase inactivation: 5 min at 95 °C, polymerase chain reaction (PCR) cycling and detection (30–45 cycles): 10 s at 95 °C and 30 s at 55 °C to 60 °C (data collection step) and melt curve analysis:
# 1 min at95 °C and 1 min at55 °C and 10 s at55 °C (80 cycles, increasing each by 0.5 °C each cycle).
# [3] = tested on: BAX gene in MDA-MB-231 cells; assay: RT-PCR gene expression, BAX; settings: 48 h treatment, control = 1
# Procedure: (§5) As well, there was an apparent increase in caspase-3, showing 3.9-fold more expression than in control cells.
# (§6) Fluorometric analysis was used to gauge the level of these genes’ expression. The procedure for the used kit was carried out in accordance with the manufacturer’s instructions, which are detailed in the Supplementary file. […]
# (§7) […] at pH 7.4). The flow cytometer was then used to examine the cells […]
# (§8) 1.4.Estimation of apoptotic and anti-apoptotic gene markers […]
# (§9) such as Bax and caspase-3, as well as anti-apoptotic genes such as Bcl-2, was studied using the BIORAD iScriptTM One-Step RT-PCR kit with SYBR® Green. MDA-MB-231 cells were cultured before being treated for 48 hours […]
# (§10) Fluorometric analysis was used to gauge the level of these genes' expression. The procedure for the used kit was carried out in accordance with the manufacturer's instructions, which are detailed as follows:
# (§11) 1.4.1. RNA isolation and reverse transcription m RNA isolation iscarried out using an RNeasy extraction kit,up to 1 x 10^7 cells, depending on the cell line. Cells are disrupted in RNeasy Lysis Buffer (RLT buffer), homogenized, then ethanol is added to the lysate, creating conditions that promote selective binding of RNA to the RNeasy membrane. […]
# [4] = tested on: caspase-3 gene in MDA-MB-231 cells; assay: RT-PCR gene expression, caspase-3; settings: 48 h treatment, control = 1
# Procedure: as §5, §6, §7, §8, §9, §10, §11
# [5] = tested on: Bcl-2 gene in MDA-MB-231 cells; assay: RT-PCR gene expression, Bcl-2; settings: 48 h treatment, control = 1
# Procedure: as §5, §6, §7, §8, §9, §10, §11
structure (smiles),measurement,setting,value
"Cn1c(SCC(=O)c2ccccc2)nc(=O)c(/N=C(/CBr)c2ccccc2)c1N [Compound 7, (E)-6-Amino-5-((2-bromo-1-phenylethylidene)amino)-1-methyl-2-((2-oxo-2-phenylethyl)thio)pyrimidin-4(1H)-one]",DNA content % at cell cycle phase %G2/M,MDA-MB-231 cells [1]; control 9.19%,22.36%
same,DNA content % at cell cycle phase %S,MDA-MB-231 cells [1]; control 29.53%,28.02%
same,DNA content % at cell cycle phase %G0/G1,MDA-MB-231 cells [1]; control 61.28%,49.62%
same,increase in early apoptosis,MDA-MB-231 cells [2],58.8 fold
same,increase in total apoptosis,MDA-MB-231 cells [2],19.3 fold
same,rise of necrotic percent,MDA-MB-231 cells [2],1.8 fold
same,Gene expression BAX (apoptotic gene),[3],7.3 fold and 7.325 fold
same,Gene expression Caspase-3 (apoptotic gene),[4],3.9 fold and 3.904 fold
same,Gene expression Bcl-2 (anti-apoptotic gene),[5],0.30 fold and 0.301 fold
